Results from article PMC2826549 (Thrombosis research, 2009).

Key:
Assay type in all cases: cell-based
P2X1 = target: T1, P2X1 (Homo sapiens, UniProt P51575); assay: FLUO-4 flow cytometry of extracellular Ca2+ entry in human platelets; conditions: read-out: Ap4A Agonist Activity
T1 sequence (P51575 1-399): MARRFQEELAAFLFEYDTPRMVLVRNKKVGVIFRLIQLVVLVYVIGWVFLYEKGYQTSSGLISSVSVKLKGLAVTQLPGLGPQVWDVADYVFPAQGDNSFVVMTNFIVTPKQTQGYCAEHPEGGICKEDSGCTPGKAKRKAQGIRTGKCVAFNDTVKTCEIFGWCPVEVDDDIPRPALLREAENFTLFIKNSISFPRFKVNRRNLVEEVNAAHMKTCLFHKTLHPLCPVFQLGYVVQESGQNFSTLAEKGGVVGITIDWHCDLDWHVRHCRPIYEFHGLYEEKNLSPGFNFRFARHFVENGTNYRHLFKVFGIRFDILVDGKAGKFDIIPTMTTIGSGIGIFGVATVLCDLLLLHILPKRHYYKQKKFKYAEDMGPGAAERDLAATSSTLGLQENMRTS

P2Y1 = P2Y1 (Homo sapiens, UniProt P47900); assay: inhibition of […] ADP-induced cytosolic Ca2+ increase in human platelets
P2Y12 = P2Y12 (Homo sapiens, UniProt Q9H244); assay: VASP phosphorylation flow cytometry in human whole blood platelets
Chain of P2Y12 (Q9H244 whole entry): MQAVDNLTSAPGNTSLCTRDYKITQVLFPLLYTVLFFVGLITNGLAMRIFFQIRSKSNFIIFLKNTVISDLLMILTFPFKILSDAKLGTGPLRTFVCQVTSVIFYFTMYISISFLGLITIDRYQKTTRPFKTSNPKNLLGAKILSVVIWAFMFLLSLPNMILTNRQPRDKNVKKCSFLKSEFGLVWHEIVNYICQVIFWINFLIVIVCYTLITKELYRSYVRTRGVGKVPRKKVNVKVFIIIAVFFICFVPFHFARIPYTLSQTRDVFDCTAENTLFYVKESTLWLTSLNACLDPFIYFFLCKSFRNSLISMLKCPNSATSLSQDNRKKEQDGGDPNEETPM

Chain of P2Y1 (P47900 whole entry): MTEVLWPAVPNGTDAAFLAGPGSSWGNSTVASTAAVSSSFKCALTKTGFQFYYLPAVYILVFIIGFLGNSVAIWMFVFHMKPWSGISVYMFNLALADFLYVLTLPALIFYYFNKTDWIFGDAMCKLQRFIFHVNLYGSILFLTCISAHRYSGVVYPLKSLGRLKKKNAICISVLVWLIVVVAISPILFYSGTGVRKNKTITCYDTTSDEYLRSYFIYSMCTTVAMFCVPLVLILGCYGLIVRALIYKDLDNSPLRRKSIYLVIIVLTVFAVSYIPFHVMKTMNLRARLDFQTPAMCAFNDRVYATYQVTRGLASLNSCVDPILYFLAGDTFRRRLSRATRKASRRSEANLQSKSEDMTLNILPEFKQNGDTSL

Nc1ncnc2c1ncn2[C@@H]1O[C@H](COP(=O)(O)OP(=O)(O)OP(=O)(O)OP(=O)(O)OC[C@H]2O[C@@H](n3cnc4c(N)ncnc43)[C@H](O)[C@@H]2O)[C@@H](O)[C@H]1O [Ap4A, Diadenosine 5',5"'-P^1,P^4-tetraphosphate]
EC50 (P2X1): ~0.3 µM | IC50 (P2Y1): 40.8 ± 12.3 µM | IC50 (P2Y12): > 250 µM
